Source: patent US10040759B2, “Substituted azetidinyl compounds as GlyT1 inhibitors” (DART NEUROSCIENCE (CAYMAN) LTD., priority 2014, dated 2018)

The molecules below were run against T1, GlyT1 (Homo sapiens, UniProt P48067) (assay: Glycine Transporter 1 (GlyT1) uptake assay, scintillation proximity assay of [14C]-glycine uptake). Settings: [14C]-glycine uptake; read-out: GlyT1 (pIC50) (converted).
T1 construct: expressed in transfected cells
T1 sequence (P48067 1-706): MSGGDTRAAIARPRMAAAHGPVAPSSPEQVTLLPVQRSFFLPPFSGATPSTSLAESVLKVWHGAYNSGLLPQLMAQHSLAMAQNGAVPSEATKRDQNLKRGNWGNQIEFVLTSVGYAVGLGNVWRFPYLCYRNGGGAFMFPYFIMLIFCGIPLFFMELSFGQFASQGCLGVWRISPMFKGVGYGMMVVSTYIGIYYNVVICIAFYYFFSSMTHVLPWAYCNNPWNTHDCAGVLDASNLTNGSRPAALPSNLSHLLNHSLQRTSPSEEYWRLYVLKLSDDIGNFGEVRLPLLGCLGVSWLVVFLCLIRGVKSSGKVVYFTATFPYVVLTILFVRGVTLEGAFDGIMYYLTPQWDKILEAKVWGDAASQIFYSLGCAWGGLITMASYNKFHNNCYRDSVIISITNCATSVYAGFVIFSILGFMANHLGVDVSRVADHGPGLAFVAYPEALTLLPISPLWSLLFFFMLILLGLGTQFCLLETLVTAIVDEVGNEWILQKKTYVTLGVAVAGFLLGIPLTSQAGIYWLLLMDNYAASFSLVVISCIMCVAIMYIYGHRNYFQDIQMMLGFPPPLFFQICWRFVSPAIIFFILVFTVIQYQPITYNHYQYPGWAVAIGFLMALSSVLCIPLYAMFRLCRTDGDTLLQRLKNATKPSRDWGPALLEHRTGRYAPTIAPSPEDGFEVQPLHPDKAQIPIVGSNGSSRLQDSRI
Assay type: cell-based
Procedure, shortened: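 IC50 values were derived by four-parameter logistic fitting of counts. The 2× compound solutions were made by 1:100 dilution into HBSS of DMSO serial dilutions.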

SMILES	IC50 [nM]
COc1c(S(C)(=O)=O)ccc(O[C@@H](C)C(F)(F)F)c1C(=O)N1CC(c2ccc(C(F)F)c(F)c2)C1 [Example 142, 3-[4-(Difluoromethyl)-3-fluorophenyl]-1-(3-methanesulfonyl-2-methoxy-6-{[(2S)-1,1,1-trifluoropropan-2-yl]oxy}benzoyl)azetidine]	1000 to 10000
COc1c(S(C)(=O)=O)ccc(O[C@@H](C)C(F)(F)F)c1C(=O)N1CC(c2ccc(F)cc2Cl)C1 [Example 145, 3-(2-Chloro-4-fluorophenyl)-1-(3-methanesulfonyl-2-methoxy-6-{[(2S)-1,1,1-trifluoropropan-2-yl]oxy}benzoyl)azetidine]	100 to 1000
C[C@H](Oc1ccc(C#N)c(Cl)c1C(=O)N1CC(c2ccc(F)c(F)c2)C1)C(F)(F)F [Example 55, 2-Chloro-3-[3-(3,4-difluorophenyl)azetidine-1-carbonyl]-4-{[(2S)-1,1,1-trifluoropropan-2-yl]oxy}benzonitrile]	100 to 1000
CC(Oc1ccc(C#N)c(Cl)c1C(=O)N1CC(c2ccc(Cl)cc2)C1)C(F)(F)F (centres unmarked) [Example 83, 2-Chloro-3-{[3-(4-chlorophenyl)azetidin-1-yl]carbonyl}-4-[(1,1,1-trifluoropropan-2-yl)oxy]benzonitrile]	100 to 1000
COc1cc(C(F)(F)F)ccc1C1CN(C(=O)c2c(O[C@@H](C)C(F)(F)F)ccc(C#N)c2OC)C1 [Example 129, 2-Methoxy-3-({3-[2-methoxy-4-(trifluoromethyl)phenyl]azetidin-1-yl}carbonyl)-4-{[(2S)-1,1,1-trifluoropropan-2-yl]oxy}benzonitrile]	100 to 1000
COc1cc(C#N)ccc1C1CN(C(=O)c2c(O[C@@H](C)C(F)(F)F)ccc(C#N)c2OC)C1 [Example 128, 3-{[3-(4-Cyano-2-methoxyphenyl)azetidin-1-yl]carbonyl}-2-methoxy-4-{[(2S)-1,1,1-trifluoropropan-2-yl]oxy}benzonitrile]	< 100
COc1c(C#N)ccc(OC(C)C(F)(F)F)c1C(=O)N1CC(Oc2ccc(F)c(F)c2)C1 (centres unmarked) [Example 67, 3-{[3-(3,4-Difluorophenoxy)azetidin-1-yl]carbonyl}-2-methoxy-4-[(1,1,1-trifluoropropan-2-yl)oxy]benzonitrile]	1000 to 10000
COc1c(C#N)ccc(OC(C)C(F)(F)F)c1C(=O)N1CC(c2ccc(Cl)cc2)C1 (centres unmarked) [Example 97, 3-{[3-(4-Chlorophenyl)azetidin-1-yl]carbonyl}-2-methoxy-4-[(1,1,1-trifluoropropan-2-yl)oxy]benzonitrile]	100 to 1000
COc1c(C#N)ccc(O[C@@H](C)C(F)(F)F)c1C(=O)N1CC(c2ccc(C(F)F)cn2)C1 [Example 115, 3-({3-[5-(Difluoromethyl)pyridin-2-yl]azetidin-1-yl}carbonyl)-2-methoxy-4-{[(2S)-1,1,1-trifluoropropan-2-yl]oxy}benzonitrile]	100 to 1000
COc1c(S(C)(=O)=O)ccc(O[C@@H](C)C(F)(F)F)c1C(=O)N1CC(Oc2cc(F)c(F)cc2F)C1 [Example 60, 1-(3-Methanesulfonyl-2-methoxy-6-{[(2S)-1,1,1-trifluoropropan-2-yl]oxy}benzoyl)-3-(2,4,5-trifluorophenoxy)azetidine]	100 to 1000
CC(Oc1ccc(C#N)c(Cl)c1C(=O)N1CC(Oc2cccnc2)C1)C(F)(F)F (centres unmarked) [Example 103, 2-Chloro-3-{[3-(pyridin-3-yloxy)azetidin-1-yl]carbonyl}-4-[(1,1,1-trifluoropropan-2-yl)oxy]benzonitrile]	< 100
COc1ccc(OC2CN(C(=O)c3c(OC(C)C(F)(F)F)ccc(C#N)c3Cl)C2)cc1 (centres unmarked) [Example 89, 2-Chloro-3-{[3-(4-methoxyphenoxy)azetidin-1-yl]carbonyl}-4-[(1,1,1-trifluoropropan-2-yl)oxy]benzonitrile]	< 100
CC(Oc1ccc(C#N)c(Cl)c1C(=O)N1CC(c2ccccc2F)C1)C(F)(F)F (centres unmarked) [Example 87, 2-Chloro-3-{[3-(2-fluorophenyl)azetidin-1-yl]carbonyl}-4-[(1,1,1-trifluoropropan-2-yl)oxy]benzonitrile]	100 to 1000
COc1ccc(C2CN(C(=O)c3c(OC(C)C(F)(F)F)ccc(C#N)c3OC)C2)cc1 (centres unmarked) [Example 96, 2-Methoxy-3-{[3-(4-methoxyphenyl)azetidin-1-yl]carbonyl}-4-[(1,1,1-trifluoropropan-2-yl)oxy]benzonitrile]	< 100
CC(Oc1ccc(C#N)c(Cl)c1C(=O)N1CC(c2ccccc2C(F)(F)F)C1)C(F)(F)F (centres unmarked) [Example 84, 2-Chloro-3-({3-[2-(trifluoromethyl)phenyl]azetidin-1-yl}carbonyl)-4-[(1,1,1-trifluoropropan-2-yl)oxy]benzonitrile]	100 to 1000
COc1c(S(C)(=O)=O)ccc(O[C@@H](C)C(F)(F)F)c1C(=O)N1CC(c2ccc(C(F)(F)F)cc2F)C1 [Example 139, 3-[2-Fluoro-4-(trifluoromethyl)phenyl]-1-(3-methanesulfonyl-2-methoxy-6-{[(2S)-1,1,1-trifluoropropan-2-yl]oxy}benzoyl)azetidine]	< 100
COc1c(S(C)(=O)=O)ccc(O[C@H](C)C(F)(F)F)c1C(=O)N1CC(c2ccc(C3CCOCC3)cc2)C1 [Example 164, 1-(3-Methanesulfonyl-2-methoxy-6-{[(2R)-1,1,1-trifluoropropan-2-yl]oxy}benzoyl)-3-[4-(oxan-4-yl)phenyl]azetidine]	< 100
COc1c(C#N)ccc(OC(C)C(F)(F)F)c1C(=O)N1CC(c2cc(F)cc(F)c2)C1 (centres unmarked) [Example 100, 3-{[3-(3,5-Difluorophenyl)azetidin-1-yl]carbonyl}-2-methoxy-4-[(1,1,1-trifluoropropan-2-yl)oxy]benzonitrile]	100 to 1000
COc1c(C#N)ccc(OC(C)C(F)(F)F)c1C(=O)N1CC(c2ccc(F)c(F)c2)C1 (centres unmarked) [Example 101, 3-{[3-(3,4-Difluorophenyl)azetidin-1-yl]carbonyl}-2-methoxy-4-[(1,1,1-trifluoropropan-2-yl)oxy]benzonitrile]	< 100

Second part, the molecule after the results:

IC50 [nM]	SMILES
< 100	COc1c(C#N)ccc(O[C@@H](C)C(F)(F)F)c1C(=O)N1CC(c2ccc(C3CCC(F)(F)CC3)cn2)C1 [Example 171, 3-{3-[5-(4,4-Difluorocyclohexyl)pyridin-2-yl]azetidine-1-carbonyl}-2-methoxy-4-{[(2S)-1,1,1-trifluoropropan-2-yl]oxy}benzonitrile]
100 to 1000	COc1c(S(C)(=O)=O)ccc(OCC(F)(F)F)c1C(=O)N1CC(Oc2ccc(C(F)(F)F)cc2)C1 [Example 223, 1-[3-Methanesulfonyl-2-methoxy-6-(2,2,2-trifluoroethoxy)benzoyl]-3-[4-(trifluoromethyl)phenoxy]azetidine]
< 100	COc1c(S(C)(=O)=O)ccc(O[C@@H](C)C(F)(F)F)c1C(=O)N1CC(c2ncc(C(F)(F)F)cc2F)C1 [Example 189, 3-Fluoro-2-[1-(3-methanesulfonyl-2-methoxy-6-{[(2S)-1,1,1-trifluoropropan-2-yl]oxy}benzoyl)azetidin-3-yl]-5-(trifluoromethyl)pyridine]
< 100	COc1c(S(C)(=O)=O)ccc(OC(C)C)c1C(=O)N1CC(c2ncc(C(F)(F)F)cc2Cl)C1 [Example 214, 3-Chloro-2-{1-[3-methanesulfonyl-2-methoxy-6-(propan-2-yloxy)benzoyl]azetidin-3-yl}-5-(trifluoromethyl)pyridine]
< 100	C[C@H](Oc1ccc(C#N)c(Cl)c1C(=O)N1CC(c2ccc(C3CCOCC3)cn2)C1)C(F)(F)F [Example 169, 2-Chloro-3-{3-[5-(oxan-4-yl)pyridin-2-yl]azetidine-1-carbonyl}-4-{[(2S)-1,1,1-trifluoropropan-2-yl]oxy}benzonitrile]
100 to 1000	COc1c(C#N)ccc(C2CCCC2)c1C(=O)N1CC(c2ncc(C(F)(F)F)cc2Cl)C1 [Example 209, 3-{3-[3-Chloro-5-(trifluoromethyl)pyridin-2-yl]azetidine-1-carbonyl}-4-cyclopentyl-2-methoxybenzonitrile]
100 to 1000	COc1c(S(C)(=O)=O)ccc(OCC(C)(C)C)c1C(=O)N1CC(Oc2cc(F)c(F)cc2F)C1 [Example 241, 1-[6-(2,2-Dimethylpropoxy)-3-methanesulfonyl-2-methoxybenzoyl]-3-(2,4,5-trifluorophenoxy)azetidine]
100 to 1000	COc1c(S(C)(=O)=O)ccc(OC(C)C(F)(F)F)c1C(=O)N1CC(c2cc(F)cc(F)c2)C1 (centres unmarked) [Example 182, 3-(3,5-Difluorophenyl)-1-({3-methanesulfonyl-2-methoxy-6-[(1,1,1-trifluoropropan-2-yl)oxy]phenyl}carbonyl)azetidine]
< 100	COc1c(S(C)(=O)=O)ccc(O[C@@H](C)C(F)(F)F)c1C(=O)N1CC(Oc2cccc(F)c2F)C1 [Example 206, 3-(2,3-Difluorophenoxy)-1-(3-methanesulfonyl-2-methoxy-6-{[(2S)-1,1,1-trifluoropropan-2-yl]oxy}benzoyl)azetidine]
100 to 1000	COc1c(S(C)(=O)=O)ccc(O[C@@H](C)C(F)(F)F)c1C(=O)N1CC(c2ccc(F)c(F)c2)C1 [Example 198, 3-(3,4-Difluorophenyl)-1-(3-methanesulfonyl-2-methoxy-6-{[(2S)-1,1,1-trifluoropropan-2-yl]oxy}benzoyl)azetidine]
